Measured values published in patent publication US20150175599A1, “FAAH Inhibitors” (Ironwood Pharmaceuticals, Inc., priority 2010, published 2015).

Biological target: T1, human FAAH-1 (Homo sapiens, UniProt O00519)
T1 sequence (O00519 1-579): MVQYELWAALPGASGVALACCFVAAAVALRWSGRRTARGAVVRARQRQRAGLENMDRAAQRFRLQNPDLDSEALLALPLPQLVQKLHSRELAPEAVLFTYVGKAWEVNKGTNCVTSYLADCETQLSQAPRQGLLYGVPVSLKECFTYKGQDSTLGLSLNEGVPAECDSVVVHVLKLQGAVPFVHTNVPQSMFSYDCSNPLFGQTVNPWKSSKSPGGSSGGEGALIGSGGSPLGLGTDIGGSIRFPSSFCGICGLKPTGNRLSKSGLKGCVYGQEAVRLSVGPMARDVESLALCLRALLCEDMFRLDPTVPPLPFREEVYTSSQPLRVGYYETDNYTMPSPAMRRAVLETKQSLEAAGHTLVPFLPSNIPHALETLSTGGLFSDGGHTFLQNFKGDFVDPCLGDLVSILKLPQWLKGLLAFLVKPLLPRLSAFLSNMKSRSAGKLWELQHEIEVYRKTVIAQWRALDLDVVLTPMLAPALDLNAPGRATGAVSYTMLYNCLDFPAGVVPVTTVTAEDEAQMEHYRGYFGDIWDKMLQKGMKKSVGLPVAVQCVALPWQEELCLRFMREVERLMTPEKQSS
Assay: Whole cell anandamide hydrolysis assay (HeLa clone 5c5 transfected with human FAAH-1)
Format: cell-based
Settings: HeLa clone 5c5 expressing human FAAH-1; read-out: human FAAH whole cell IC50
Description: FAAH activity was assayed in whole cells using methods disclosed previously (Maccarone et al., 1998 J Biol. Chem. 273:32332 and Bisogno et al., 1997 J Biol. Chem. 272:3315). In addition to the cell lines described in Maccarone et al. and Bisogno et al., MCF7 (ATCC designation HTB-22) and T84 (ATCC designation CCL-248) cell lines were also used in these assays.
cDNA expression clone for human FAAH-1 (in pcDNA3 vector) (Genbank Accession U82535; obtained from Benjamin Cravatt, Scripps Research Institute, La Jolla, Calif.) was linearized by digestion with BglII (New England Biolabs) and transfected by calcium phosphate into human HeLa cells (ATCC catalog #CCL-2). […] Following transfection, a stable HeLa-derived clone, designated 5c5, was isolated by single colony purification and expanded and maintained in modified Eagles medium (MEM; VWR catalog #45000-300) containing 10% fetal bovine serum (FBS), 2 mM L-glutamine, and 0.5 mg/mL G-418 (Sigma catalog #G5013).
Clone 5c5 (50,000 cells in 150 μL) was seeded into 96-well plates and incubated overnight (5% CO2, 37° C.). Media was carefully replaced with 180 μL DMEM/F12 medium (VWR catalog #45000-350) containing 15 mM HEPES, pH 7.4 and 0.1% fatty acid free BSA (Sigma catalog #A0281). Then, 2 μL of 100× desired final concentrations of certain exemplary compounds described herein were made up in DMSO, added to wells containing cells, and plates were incubated at 37° C. for 10 min. Next, 20 μL of 5 μM anandamide (Cayman catalog #90050) spiked with 8 μCi of anandamide-(ethanolamine-1-[^3H]) (American Radiolabeled Chemicals, Inc., catalog #ART 626) was added to the cells and the plates were incubated for an additional 15 min at 37° C. The reactions were terminated by chilling the plates on ice and adding 20 μL of 0.5M of potassium phosphate buffer (adjusted to pH 2.1 with phosphoric acid).
The acidified reactions were transferred to 96-well filter plates (0.25 mL capacity/well, 1.2 micron glass fiber pre-filter packed above 0.65 micron pore-size PVDF membrane, Millipore catalog MSFCN6B50) containing 25 μL charcoal (neutral activated carbon, Fisher Scientific catalog C170-500) per well. Prior to the assay, charcoal was measured and loaded onto the plate using an aluminum 96-well column loading device (Millipore catalog MACL09625). The filter plate was assembled over an empty 96-well plate (Costar) using a centrifuge alignment frame (Millipore catalog MACF09604) to allow for collection of the filtrate in the receiver plate. The charcoal glass-fiber filter plates were pre-washed with methanol by centrifugation 650×g for 10 min). Next, 80 μL of water was added to the wells of the pre-washed 96 well charcoal filter plate. Then, 90 μL of the acidified reaction mixture was added to the water in the wells of the charcoal plate. The samples were centrifuged as above. The substrate remained bound to the charcoal, whereas the [^3H]-ethanolamine product formed flowed through and was transferred to the microplates containing scintillation cocktail and quantified in a micro-plate scintillation counter (Perkin-Elmer Microbeta). Control reactions with either no cells or cells treated with DMSO alone were performed in triplicate and used to define background (no cells) and 100% activity (DMSO alone).
Following subtraction of background radioactivity, data were expressed as percent inhibition relative to 100% activity and fit with a nonlinear regression curve using GraphPad Prism Software (GraphPad Software Inc). IC50 values were calculated from the resulting dose-response curves constrained at top and bottom to 100% and 0%, respectively.

SMILES	IC50 [nM]
COc1cc(NC(=O)C(=O)c2c(C)n(Cc3ccc(Cl)cc3)c3c(OC)cccc23)ccn1 [Compound 51, 2-(1-(4-chlorobenzyl)-7-methoxy-2-methyl-1H-indol-3-yl)-N-(2-methoxypyridin-4-yl)-2-oxoacetamide]	100 to 1000
COc1ccc2c(c1)c(C(=O)C(=O)Nc1ccnc(OC)c1Cl)c(C)n2Cc1ccc(Cl)cc1 [Compound 52, N-(3-chloro-2-methoxypyridin-4-yl)-2-(1-(4-chlorobenzyl)-5-methoxy-2-methyl-1H-indol-3-yl)-2-oxoacetamide]	100 to 1000
COc1ccc2c(c1)c(C(=O)C(=O)Nc1ccnc(OC)c1F)c(C)n2Cc1ccc(Cl)cc1 [Compound 53, 2-(1-(4-chlorobenzyl)-5-methoxy-2-methyl-1H-indol-3-yl)-N-(3-fluoro-2-methoxypyridin-4-yl)-2-oxoacetamide]	< 100
COc1ccc2c(c1)c(C(=O)C(=O)Nc1cc(OC)ncc1F)c(C)n2Cc1ccc(Cl)cc1 [Compound 54, 2-(1-(4-chlorobenzyl)-5-methoxy-2-methyl-1H-indol-3-yl)-N-(5-fluoro-2-methoxypyridin-4-yl)-2-oxoacetamide]	< 100
COc1cc(NC(=O)C(=O)c2c(C)n(Cc3ccc(Cl)cc3)c3cc(Cl)c(OC)cc23)ccn1 [Compound 55, 2-(6-chloro-1-(4-chlorobenzyl)-5-methoxy-2-methyl-1H-indol-3-yl)-N-(2-methoxypyridin-4-yl)-2-oxoacetamide]	< 100
COc1cc(NC(=O)C(=O)c2c(C)n(Cc3ccc(Cl)cc3)c3ccc(OC)c(OC)c23)ccn1 [Compound 56, 2-(1-(4-chlorobenzyl)-4,5-dimethoxy-2-methyl-1H-indol-3-yl)-N-(2-methoxypyridin-4-yl)-2-oxoacetamide]	100 to 1000
COc1cc(NC(=O)C(=O)c2c(C)n(Cc3ccc(Cl)cc3)c3ccc(OC)c(Cl)c23)ccn1 [Compound 58, 2-(4-chloro-1-(4-chlorobenzyl)-5-methoxy-2-methyl-1H-indol-3-yl)-N-(2-methoxypyridin-4-yl)-2-oxoacetamide]	< 100
COc1cc(NC(=O)C(=O)c2c(C)n(Cc3ccc(Cl)cc3)c3ccc(OC)c(F)c23)ccn1 [Compound 59, 2-(1-(4-chlorobenzyl)-4-fluoro-5-methoxy-2-methyl-1H-indol-3-yl)-N-(2-methoxypyridin-4-yl)-2-oxoacetamide]	< 100
COc1cc(NC(=O)C(=O)c2c(C)n(Cc3ccc(Cl)cn3)c3cc(Cl)c(OC)cc23)ccn1 [Compound 60, 2-(6-chloro-1-((5-chloropyridin-2-yl)methyl)-5-methoxy-2-methyl-1H-indol-3-yl)-N-(2-methoxypyridin-4-yl)-2-oxoacetamide]	< 100
COc1cc(NC(=O)C(=O)c2c(C)n(Cc3ccc(Cl)cn3)c3ccc(C)cc23)ccn1 [Compound 61, 2-(1-((5-chloropyridin-2-yl)methyl)-2,5-dimethyl-1H-indol-3-yl)-N-(2-methoxypyridin-4-yl)-2-oxoacetamide]	< 100
COc1cc(NC(=O)C(=O)c2c(C)n(Cc3ccc(Cl)cn3)c3ccc([N+](=O)[O-])cc23)ccn1 [Compound 62, 2-(1-((5-chloropyridin-2-yl)methyl)-2-methyl-5-nitro-1H-indol-3-yl)-N-(2-methoxypyridin-4-yl)-2-oxoacetamide]	< 100
COc1cc(NC(=O)C(=O)c2c(C)n(Cc3ccc(Cl)cn3)c3ccc(Cl)cc23)ccn1 [Compound 63, 2-(5-chloro-1-((5-chloropyridin-2-yl)methyl)-2-methyl-1H-indol-3-yl)-N-(2-methoxypyridin-4-yl)-2-oxoacetamide]	< 100
COc1cc(NC(=O)C(=O)c2c(C)n(Cc3ccc(Cl)cn3)c3cc(F)c(OC)cc23)ccn1 [Compound 64, 2-(1-((5-chloropyridin-2-yl)methyl)-6-fluoro-5-methoxy-2-methyl-1H-indol-3-yl)-N-(2-methoxypyridin-4-yl)-2-oxoacetamide]	< 100
COc1cc(NC(=O)C(=O)c2c(C)n(Cc3ccc(Cl)cn3)c3ccc(N)cc23)ccn1 [Compound 65, 2-(5-amino-1-((5-chloropyridin-2-yl)methyl)-2-methyl-1H-indol-3-yl)-N-(2-methoxypyridin-4-yl)-2-oxoacetamide]	< 100
COc1cc(NC(=O)C(=O)c2c(C)n(Cc3ccc(Cl)cn3)c3ccc(N(C)C)cc23)ccn1 [Compound 66, 2-(1-((5-chloropyridin-2-yl)methyl)-5-(dimethylamino)-2-methyl-1H-indol-3-yl)-N-(2-methoxypyridin-4-yl)-2-oxoacetamide]	< 100
COc1cc(NC(=O)C(=O)c2c(C)n(Cc3ccc(Cl)cn3)c3cc(OC)c(Cl)cc23)ccn1 [Compound 67, 2-(5-chloro-1-((5-chloropyridin-2-yl)methyl)-6-methoxy-2-methyl-1H-indol-3-yl)-N-(2-methoxypyridin-4-yl)-2-oxoacetamide]	< 100
COc1cc(NC(=O)C(=O)c2c(C)n(Cc3ccc(Cl)cn3)c3ccccc23)ccn1 [Compound 68, 2-(1-((5-chloropyridin-2-yl)methyl)-2-methyl-1H-indol-3-yl)-N-(2-methoxypyridin-4-yl)-2-oxoacetamide]	< 100
COc1ccc(Cn2c(C)c(C(=O)C(=O)Nc3ccnc(OC)c3)c3cc(C)ccc32)nc1 [Compound 69, 2-(1-((5-methoxypyridin-2-yl)methyl)-2,5-dimethyl-1H-indol-3-yl)-N-(2-methoxypyridin-4-yl)-2-oxoacetamide]	< 100
COc1cc(NC(=O)C(=O)c2c(C)n(Cc3ncc(Cl)cc3Cl)c3cc(Cl)c(OC)cc23)ccn1 [Compound 70, 2-(6-chloro-1-((3,5-dichloropyridin-2-yl)methyl)-5-methoxy-2-methyl-1H-indol-3-yl)-N-(2-methoxypyridin-4-yl)-2-oxoacetamide]	< 100
Cc1c(C(=O)C(=O)Nc2cccc(Cl)c2)c2cc(O)ccc2n1Cc1ccc(Cl)cc1 [Compound 71, 2-(1-(4-chlorobenzyl)-5-hydroxy-2-methyl-1H-indol-3-yl)-N-(3-chlorophenyl)-2-oxoacetamide]	< 100
COc1cc(NC(=O)C(=O)c2c(C)n(Cc3ccc(Cl)cc3)c3cc(F)c(OC)cc23)ccn1 [Compound 72, 2-(1-(4-chlorobenzyl)-6-fluoro-5-methoxy-2-methyl-1H-indol-3-yl)-N-(2-methoxypyridin-4-yl)-2-oxoacetamide]	< 100
COc1cc(NC(=O)C(=O)c2c(C)n(Cc3ccc(Cl)cc3)c3ccc(N)c(Cl)c23)ccn1 [Compound 73, 2-(5-amino-4-chloro-1-(4-chlorobenzyl)-2-methyl-1H-indol-3-yl)-N-(2-methoxypyridin-4-yl)-2-oxoacetamide]	< 100
COc1cc(NC(=O)C(=O)c2c(C)n(Cc3ccc(Cl)cc3)c3cc(C)c(OC)cc23)ccn1 [Compound 74, 2-(1-(4-chlorobenzyl)-5-methoxy-2,6-dimethyl-1H-indol-3-yl)-N-(2-methoxypyridin-4-yl)-2-oxoacetamide]	< 100
